Assay results published in publication PMC6000956, “Immunomodulatory activities of pixatimod: emerging nonclinical and clinical data, and its potential utility in combination with PD-1 inhibitors” (Journal for Immunotherapy of Cancer, 2018).

Tested on: rats
Test: Repeated weekly SC toxicology in rats (organ weights)
Assay type: in vivo
Settings: weekly SC x5, 3, 12 and 48 mg/kg
Method: Supplementary file 40425_2018_363_MOESM2_ESM.pptx: Additional file 2: Effect of pixatimod dosing on selected organ weights in beagle dogs (IV and SC) and rats (SC). Repeated weekly IV exposure (× 5) of pixatimod increases the relative weights of liver (A) and kidney (B) but not thymus (C) nor spleen (D) in beagle dogs. […] Data shown is for combined sexes. […] Study size, n = 15 for control and 48 mg/kg groups and n = 10 for 3 and 12 mg/kg groups. […] Study size, n = 5 for control and 20 mg/kg groups and n = 3 for 2.5 and 7.5 mg/kg groups. *P < 0.05, **P < 0.01, ***P < 0.001 versus control (Kruskal-Wallis test for the dog study, ANOVA followed by Dunnett’s comparison for the rat study). (PPTX 65 kb)

## CC(C)CCC[C@@H](C)[C@H]1CC[C@H]2[C@@H]3CC[C@H]4C[C@@H](O[C@@H]5O[C@H](COS(=O)(=O)O)[C@@H](O[C@H]6O[C@H](COS(=O)(=O)O)[C@@H](O[C@H]7O[C@H](COS(=O)(=O)O)[C@@H](O[C@H]8O[C@H](COS(=O)(=O)O)[C@@H](OS(=O)(=O)O)[C@H](OS(=O)(=O)O)[C@H]8OS(=O)(=O)O)[C@H](OS(=O)(=O)O)[C@H]7OS(=O)(=O)O)[C@H](OS(=O)(=O)O)[C@H]6OS(=O)(=O)O)[C@H](OS(=O)(=O)O)[C@H]5OS(=O)(=O)O)CC[C@]4(C)[C@H]3CC[C@]12C [pixatimod]
  Relative spleen weight: increased in a dose-dependent manner
